Source: patent EP1632479A2, “Piperazine derivatives useful as ccr5 antagonists” (SCHERING CORPORATION, priority 1999, dated 2000)

Target: T1, human CCR5 chemokine receptor (Homo sapiens, UniProt P51681)
T1 construct: expressed in transfected cells; host or cells: NIH 3T3 cells (murine), membranes
Assay: CCR5 membrane binding assay (inhibition of RANTES binding)
Details: 125I-RANTES; membranes from NIH 3T3 cells expressing the human CCR5 chemokine receptor; one hour incubation
Method: CCR5 Membrane Binding Assay:
A high throughput screen utilizing a CCR5 membrane binding assay identifies inhibitors of RANTES binding. This assay utilizes membranes prepared from NIH 3T3 cells expressing the human CCR5 chemokine receptor which have the ability to bind to RANTES, a natural ligand for the receptor. […] Compounds are serially diluted over a wide range of 0.001 ug/ml to 1 ug/ml and tested in triplicates. Reaction cocktails are harvested through glass fiber filters, and washed thoroughly.

T1 sequence (P51681 whole entry): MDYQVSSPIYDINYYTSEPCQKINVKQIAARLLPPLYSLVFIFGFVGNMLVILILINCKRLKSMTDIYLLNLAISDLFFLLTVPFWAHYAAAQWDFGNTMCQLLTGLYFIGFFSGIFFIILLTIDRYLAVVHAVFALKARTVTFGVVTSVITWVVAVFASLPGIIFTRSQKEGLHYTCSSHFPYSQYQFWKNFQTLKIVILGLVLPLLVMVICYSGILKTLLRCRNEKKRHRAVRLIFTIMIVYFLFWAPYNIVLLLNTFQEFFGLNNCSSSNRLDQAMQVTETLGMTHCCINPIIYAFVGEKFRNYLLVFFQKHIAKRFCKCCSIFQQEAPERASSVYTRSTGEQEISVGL

| SMILES | Ki |
| --- | --- |
| Cc1cccc(C)c1C(=O)N1CCC(N2CCN(C(C)c3ccc(I)cc3)C(C)C2)CC1 (centres unmarked) [Example 11] | 10.5 nM |
| Cc1cccc(C)c1C(=O)N1CCC(N2CCN(C(C)c3ccc(-c4ccccc4)cc3)C(C)C2)CC1 (centres unmarked) [Example 16] | 60 nM |
